Test [1] has as its system gastrocnemius (GA) muscle. Description: In vivo muscle force after downhill treadmill run, aged mice, gastrocnemius. Set-up: species or system mouse. Here is the method:
In vivo muscle force measurement: Aged mice (18 mo.) were subjected to downhill treadmill run for 2 consecutive weeks. During week 1, mice ran daily for 5 days and rested on days 6 and 7. […] During week 2, mice were subjected to 5 days treadmill run only. The treadmill run was performed using the Exer3/6 (Columbus Instruments). Mice ran for 10 minutes on the treadmill at 20 degrees downhill, starting at a speed of 7 meters/min. After 3 min, the speed was increased by 1 meter/min to a final speed of 14 meter/min. […] Force measurements were on the GA muscles at week 5 based on a protocol published previously^5. Briefly, for each mouse, an incision was made to expose the GA. We severed the calcaneus bone with intact achilles tendon and attached the tendon-bone complex to a 300C-LR force transducer (Aurora Scientific) with a thin metal hook. The muscles and tendons were kept moist by periodic wetting with saline (0.9% sodium chloride) solution. The lower limb was immobilized below the knee by a metal clamp without compromising the blood supply to the leg. The mouse was under inhaled anesthetic (2% isofluorane) during the entire force measuring procedure and body temperature was maintained by a heat lamp. […] Data were collected with a PCI-6251 acquisition card (National Instruments) and analyzed in Matlab. We calculated specific force values by normalizing the force measurements by the muscle physiological cross-sectional areas (PCSAs), which were similar between the control and the experimental PGE2 treated group (Table 2). PCSA (measured in mm^2) was calculated according to the following equation^12: PCSA (mm^2)=[mass (g)×Cos θ]÷[ρ (g/mm^3)×fiber length (mm)], where θ is pennation angle of the fiber and ρ is muscle density (0.001056 g/mm^3). […]
The muscle force and synchronization pulses were recorded via a PCI-6251 acquisition card (National Instruments) and analyzed using Matlab. FIGS. 5O-5P show the specific muscle force values that were calculated by normalizing the force measurements with the muscle physiological cross-sectional area. […]

For test [2], the system named is tibialis anterior (TA) muscle. As to the kind of experiment: Cardiotoxin muscle injury, TA histology (PAX7, myofiber cross-sectional area). The format is in vivo, mouse. Conditions: for effect on endogenous MuSCs in the absence of injury: no tissue damage; for increase in endogenous PAX7-expressing MuSCs / distribution of myofiber cross-sectional area: young mice; for increase in endogenous PAX7-expressing MuSCs: bolus three days after injury, fourteen days post injury; for distribution of myofiber cross-sectional area: day 14 post-cardiotoxin injury. As to the method:
Muscle injury: We used an injury model entailing intramuscular injection of 10 μl of notexin (10 μg ml^−1; Latoxan) or cardiotoxin (10 μM; Latoxan) into the TA muscle. For cryoinjury, an incision was made in the skin overlying the TA muscle and a copper probe, chilled in liquid nitrogen, was applied to the TA muscle for three 10 s intervals, allowing the muscle to thaw between each application of the cryoprobe. When indicated, 48 hr after injury either 16,16-Dimethyl Prostaglandin E2 (dmPGE2) (13 nmol, Tocris, catalog #4027) or vehicle control (PBS) was injected into the TA muscle. The contralateral TA was used as an internal control. We collected tissues 14 days post-injury for analysis.
Tissue histology: We collected and prepared recipient TA muscle tissues for histology as previously described^5,6. We incubated transverse sections with anti-LAMININ (Millipore, clone A5, catalog #05-206, 1:200), and anti-PAX7 (Santa Cruz Biotechnology, catalog #sc-81648, 1:50) primary antibodies and then with AlexaFluor secondary Antibodies (Jackson ImmunoResearch Laboratories, 1:200). We counterstained nuclei with DAPI (Invitrogen). We acquired images with an AxioPlan2 epifluorescent microscope (Carl Zeiss Microimaging) with Plan NeoFluar 10×/0.30 NA or 20×/0.75 NA objectives (Carl Zeiss) and an ORCA-ER digital camera (Hamamatsu Photonics) controlled by the SlideBook (3i) software. The images were cropped using Adobe Photoshop with consistent contrast adjustments across all images from the same experiment. The image composites were generated using Adobe Illustrator. We analyzed the number of PAX7 positive cells using the MetaMorph Image Analysis software (Molecular Devices), and the fiber area using the Baxter Algorithms for Myofiber Analysis that identified the fibers and segmented the fibers in the image to analyze the area of each fiber. For PAX7 quantification we examined serial sections spanning a depth of at least 2 mm of the TA. For fiber area at least 10 fields of LAMININ-stained myofiber cross-sections encompassing over 400 myofibers were captured for each mouse as above. Data analyses were blinded. The researchers performing the imaging acquisition and scoring were unaware of treatment condition given to sample groups analyzed.
We used an injury model entailing intramuscular injection of 10 μl of notexin (10 μg ml^−1; Latoxan, catalog #L8104) or cardiotoxin (10 μM; Latoxan, catalog #L8102) into the Tibialis anterior (TA) muscle. For cryoinjury, an incision was made in the skin overlying the TA muscle and a copper probe, chilled in liquid nitrogen, was applied to the TA muscle for three 10 s intervals, allowing the muscle to thaw between each application of the cryoprobe. When indicated, 48 hr after injury either 16,16-Dimethyl Prostaglandin E2 (dmPGE2) (13 nmol, Tocris, catalog #4027), Indomethacin (35 μg, Sigma, catalog #17378) or vehicle control (PBS) was injected into the TA muscle. The contralateral TA was used as an internal control, except for the force measurement experiments where each mouse had both legs injured with the same condition and independent mice were used for each condition.
We collected and prepared recipient TA muscle tissues for histology as previously described (26, 27). For mouse injury assays we incubated transverse sections with Rabbit polyclonal anti-PGE2 (abcam, Catalog #ab2318, 1:100) Rat polyclonal anti-Laminin (Clone A5) (EMD Millipore, Catalog #05-206, 1:200), Mouse monoclonal anti-Pax7 (Santa Cruz, Catalog #sc-81648, 1:50), AlexaFluor 647-conjugated wheat germ agglutinin (WGA) antibody (W32466, Thermo Fisher Scientific), Rabbit polyclonal anti-GFP (A11122, Thermo Fisher Scientific, 1:500) and Mouse monoclonal anti-Embryonic Myosin Heavy Chain (DSHB, Catalog #F1.652, 1:10) primary antibodies and then with AlexaFluor secondary Antibodies (Jackson ImmunoResearch Laboratories, 1:500). We counterstained nuclei with DAPI (Invitrogen). […]

Where [3] appears, read: 13 nM dmPGE2 daily for 5 days after downhill treadmill run, force at week 5.

`CCCCC[C@H](O)/C=C/[C@H]1[C@H](O)CC(=O)[C@@H]1C/C=C\CCCC(=O)O` [PGE2, prostaglandin E2]: the “specific twitch force of gastrocnemius muscles (Example 2)” value in test [1] (treadmill to exhaustion daily for 10 days, 3 nM PGE2 after each run, force 4 weeks after last run) is on record as “increase in specific twitch force”. The “muscle mass of treated TA” value in test [2] (day 14 post-injury) was “did not increase”. Moreover, in test [2], the “effect on endogenous MuSCs in the absence of injury” value is “no difference from vehicle-injected controls”, the “increase in endogenous PAX7-expressing MuSCs” value came out at 65±7% and the “distribution of myofiber cross-sectional area” value is “striking shift in the distribution of myofibers from smaller toward larger sizes”.
With `CCCCC(C)(C)[C@H](O)/C=C/[C@H]1[C@H](O)CC(=O)[C@@H]1C/C=C\CCCC(=O)O` [dmPGE2, 16,16-dimethyl prostaglandin E2], in test [1] (setting [3]), the “specific tetanic force of gastrocnemius” value is reported as “significantly increased” and the “specific twitch force of gastrocnemius” value is given as “significantly increased”. Further, the myofiber sizes entry in test [2] (aged mice, fourteen days post-injury) was “concomitant increase in myofiber sizes”. Also, the “increase in the number of endogenous MuSCs” value in test [2] (aged mice, single dmPGE2 injection, fourteen days post-injury) came to 24±2%. Besides, in test [2], the “effect on endogenous MuSCs in the absence of injury” value is listed as “no effect”, the “increase in endogenous PAX7-expressing MuSCs” value was 60±15% and the “distribution of myofiber cross-sectional area” value is reported as “shifted toward larger sizes”.

The record behind these values is patent US11738031B2, “Compositions and methods for preventing or treating muscle conditions” (The Board of Trustees of the Leland Stanford Junior …, priority 2017, dated 2023).
